The values below are quoted from earlier work in publication PMC9165289, “Theranostic PSMA ligands with optimized backbones for intraoperative multimodal imaging and photodynamic therapy of prostate cancer” (European Journal of Nuclear Medicine and Molecular Imaging, 2022).

The test system of series [1] is PSMA. Also noted: method as in PMID 27789722, PMID 29651565. The following applies: reported in the literature; cited from earlier work.
The test system of series [2] is PSMA. More on the design: method as in PMID 27789722, PMID 29651565. The following applies: reported in the literature; cited from earlier work. The source holds these as a separate data set.

As a reminder, the IC50 is the concentration that gives 50% inhibition. Turning to PSMA-1007, in the series with PSMA [1], the IC50 was 4.2 ± 0.5 nM. For the same substance, the internalization ratio in the series with PSMA [2] is 67%.
